Assay results taken from paper PMC7849821, “The deubiquitylase USP9X controls ribosomal stalling” (The Journal of Cell Biology, 2021).
pIC50: −log10 of the molar value.

How the values were obtained:
[1] = target: USP22 (Homo sapiens, UniProt Q9UPT9); assay: DUB biochemical assay (Ub-rhodamine cleavage); conditions: Ub-rhodamine substrate, DUB panel Fig. S2 A
Procedure: (§1) The assay was performed in a final volume of 6 µl in assay buffer containing 20 mM Tris buffer, pH 8, 0.03% bovine γ-globulin, 0.01% Triton X-100, and 1 mM glutathione. Nanoliter quantities of 10-point, threefold serial dilutions in DMSO were predispensed into 1,536 assay plates for a final top concentration between […] and subsequent half-log dilutions. 2× DUB (0.025 nM final concentration) was added and preincubated for 30 min at room temperature. 2× ubiquitin (Ub)-rhodamine (25 nM final concentration) was added to initiate the reaction. Fluorescence readings (excitation: 485 nm, emission: 535 nm) were acquired over 12 min (Envision reader). The slope of the data from each point was used to determine IC50.
(§2) For all assays, data were reported as percent inhibition compared with control wells. IC50 values were determined by curve fitting of the standard four-parameter logistic fitting algorithm included in the Activity Base software package IDBS XE Designer Model205. Data were fitted using the Levenburg–Marquardt algorithm.

[2] = target: USP13 (Homo sapiens, UniProt Q92995); assay: DUB biochemical assay (Ub-rhodamine cleavage); conditions: Ub-rhodamine substrate, DUB panel Fig. S2 A
Procedure: as §1, §2

[3] = target: USP12 (Homo sapiens, UniProt O75317); assay: DUB biochemical assay (Ub-rhodamine cleavage); conditions: Ub-rhodamine substrate, DUB panel Fig. S2 A
Procedure: as §1, §2

[4] = target: USP18 (Homo sapiens, UniProt Q9UMW8); assay: DUB biochemical assay (Ub-rhodamine cleavage); conditions: Ub-rhodamine substrate, DUB panel Fig. S2 A
Procedure: as §1, §2

[5] = target: USP7 (Homo sapiens, UniProt Q93009); assay: DUB biochemical assay (Ub-rhodamine cleavage); conditions: Ub-rhodamine substrate, DUB panel Fig. S2 A
Procedure: as §1, §2

[6] = target: USP33 (Homo sapiens, UniProt Q8TEY7); assay: DUB biochemical assay (Ub-rhodamine cleavage); conditions: Ub-rhodamine substrate, DUB panel Fig. S2 A
Procedure: as §1, §2

[7] = target: USP28 (Homo sapiens, UniProt Q96RU2); assay: DUB biochemical assay (Ub-rhodamine cleavage); conditions: Ub-rhodamine substrate, DUB panel Fig. S2 A
Procedure: as §1, §2

[8] = target: USP1 (Homo sapiens, UniProt O94782); assay: DUB biochemical assay (Ub-rhodamine cleavage); conditions: Ub-rhodamine substrate, DUB panel Fig. S2 A
Procedure: as §1, §2

[9] = target: USP4 (Homo sapiens, UniProt Q13107); assay: DUB biochemical assay (Ub-rhodamine cleavage); conditions: Ub-rhodamine substrate, DUB panel Fig. S2 A
Procedure: as §1, §2

[10] = target: USP11 (Homo sapiens, UniProt P51784); assay: DUB biochemical assay (Ub-rhodamine cleavage); conditions: Ub-rhodamine substrate, DUB panel Fig. S2 A
Procedure: as §1, §2

[11] = target: USP10 (Homo sapiens, UniProt Q14694); assay: DUB biochemical assay (Ub-rhodamine cleavage); conditions: Ub-rhodamine substrate, DUB panel Fig. S2 A
Procedure: as §1, §2

[12] = target: USP36 (Homo sapiens, UniProt Q9P275); assay: DUB biochemical assay (Ub-rhodamine cleavage); conditions: Ub-rhodamine substrate, DUB panel Fig. S2 A
Procedure: as §1, §2

[13] = target: USP47 (Homo sapiens, UniProt Q96K76); assay: DUB biochemical assay (Ub-rhodamine cleavage); conditions: Ub-rhodamine substrate, DUB panel Fig. S2 A
Procedure: as §1, §2

[14] = target: USP8 (Homo sapiens, UniProt P40818); assay: DUB biochemical assay (Ub-rhodamine cleavage); conditions: Ub-rhodamine substrate, DUB panel Fig. S2 A
Procedure: as §1, §2

[15] = target: USP25 (Homo sapiens, UniProt Q9UHP3); assay: DUB biochemical assay (Ub-rhodamine cleavage); conditions: Ub-rhodamine substrate, DUB panel Fig. S2 A
Procedure: as §1, §2

[16] = target: USP5 (Homo sapiens, UniProt P45974); assay: DUB biochemical assay (Ub-rhodamine cleavage); conditions: Ub-rhodamine substrate, DUB panel Fig. S2 A
Procedure: as §1, §2

[17] = target: USP24 (Homo sapiens, UniProt Q9UPU5); assay: DUB biochemical assay (Ub-rhodamine cleavage); conditions: Ub-rhodamine substrate, DUB panel Fig. S2 A
Procedure: as §1, §2

[18] = target: USP37 (Homo sapiens, UniProt Q86T82); assay: DUB biochemical assay (Ub-rhodamine cleavage); conditions: Ub-rhodamine substrate, DUB panel Fig. S2 A
Procedure: as §1, §2

[19] = target: USP15 (Homo sapiens, UniProt Q9Y4E8); assay: DUB biochemical assay (Ub-rhodamine cleavage); conditions: Ub-rhodamine substrate, DUB panel Fig. S2 A
Procedure: as §1, §2

[20] = target: USP2 (Homo sapiens, UniProt O75604); assay: DUB biochemical assay (Ub-rhodamine cleavage); conditions: Ub-rhodamine substrate, DUB panel Fig. S2 A
Procedure: as §1, §2

[21] = test system: HCT116 cells; assay: SILAC-based proteome analysis of FT709-treated HCT116 cells; format: cell-based; conditions: 10 µM, 24 h
Procedure: HCT116 cells were grown in SILAC DMEM supplemented with 10% dialyzed FBS (Dundee Cell Products) at 37°C and 5% CO2. To generate light, medium, and heavy stable isotope-labeled cells, arginine- and lysine-free DMEM medium was supplemented with 200 mg/liter L-proline and either L-lysine (Lys0) together with L-arginine (Arg0; light), L-lysine-^2H4 (Lys4) with L-arginine-U-^13C6 (Arg6; medium), or L-lysine-U-^13C6-^15N2 (Lys8) with L-arginine-U-^13C6-^15N4 (Arg10; heavy) at final concentrations of 84 mg/liter for the arginine and 146 mg/liter for the lysine until fully metabolically labeled. […] Relative protein concentrations of the lysates were determined using a bicinchoninic acid assay (Thermo Fisher Scientific), and light-, medium-, and heavy-labeled lysates were combined in a 1:1:1 ratio.
Protein extracts (1.2–1.5 mg) containing SDS were reduced with 5 mM dithiothreitol, alkylated with 20 mM iodoacetamide, and then subjected to methanol/chloroform extraction. […] Peptide fractions were analyzed in technical replicates by nano-UPLC-MS/MS using a Dionex Ultimate 3000 nano UPLC with EASY spray column (75 µm × 500 mm, 2 µm particle size; Thermo Fisher Scientific) with a 60-min gradient of 2% acetonitrile/0.1% formic acid/5% DMSO to 35% acetonitrile/0.1% formic acid/5% DMSO at a flow rate of ∼250 nl/min. […]

[22] = test system: ZNF598 and MKRN2; assay: Immunoblot of FT709 responsive markers in A549 and U2OS cells; format: cell-based; conditions: 10 µM
Procedure: (§3) Cultured cells were lysed for 10 min at 4°C in RIPA buffer (10 mM Tris-HCl, pH 7.5, 150 mM NaCl, 1% Triton X-100, 0.1% SDS, and 1% sodium deoxycholate) supplemented with mammalian protease inhibitor cocktail (Sigma-Aldrich). Proteins were resolved using SDS-PAGE (Invitrogen NuPage gel 4–12%), transferred to nitrocellulose membrane, blocked in 5% fat-free milk or 5% bovine serum albumin in TBS supplemented with Tween-20, and probed with primary antibodies overnight. Visualization and quantification of Western blots were performed using IRdye 800CW and 680LT coupled secondary antibodies and an Odyssey infrared scanner (LI-COR Biosciences).

[23] = test system: ZNF598; assay: Immunoblot of ZNF598 in FT709-treated HCT116 cells; format: cell-based; conditions: 10 µM, 4 or 24 h
Procedure: as §3

[24] = test system: CEP55; assay: MSD ELISA assay for CEP55 reduction in BxPC3 cells; format: cell-based; conditions: Homo sapiens, BXPC-3, BxPC3 pancreatic cancer cells, 6 h exposure, read-out: IC50 for modulation (reduction) of CEP55 expression
Procedure: BxPC3 cells were seeded in 96-well plates and exposed to FT709 (20 µM top concentration, 1:2 serial dilutions) for 6 h. Cell lysates were prepared in RIPA buffer and stored at −80°C until analysis. Samples were analyzed by an MSD ELISA assay (Pacific Biolabs) using a CEP55 antibody (Novux; 1:500 dilution in PBS) captured overnight at 4°C, 30 µl lysates per well, 30 µl of CEP55 antibody (CST; 81693) diluted 1:2,000 in 1% blocker A/PBS and 30 µl per well of a 1:4,000 diluted goat anti-rabbit sulfo-tag, 1% blocker A/PBS. Plates were read on a MSD Sector Imager 2400. Results were transformed as percentage DMSO controls and curves fitted using a nonlinear regression to determine the IC50. Results presented are based on duplicate values.

[25] = test system: HEK293 Flp-In T-Rex GFP-P2A-(KAAA)21-P2A-RFP WT cells; assay: Fluorescent ribosomal stalling reporter, FACS RFP:GFP ratio; format: cell-based; conditions: 10 µM for 72 h
Excerpt: The HEK293 cells used in this study (HEK293-Flp-In TREX GFP-P2A-[K^AAA]21 -P2A-RFP) have been engineered to express a reporter system for terminal ribosomal stalling ([Juszkiewicz and Hegde, 2017]). The reporter cassette contains GFP (N-terminal) and RFP (C-terminal) separated by a FLAG-tagged stalling reporter (SR) incorporating a polyA stretch of twenty-one codons (K^AAA)21 (Fig. 5 B). This is flanked by viral P2A sequences, at which ribosomes skip formation of a peptide bond, without interrupting translation elongation. Consequently, unimpaired translation generates 3 proteins (GFP, FLAG-SR, RFP) in equal amounts. Stalling at the FLAG-SR aborts translation before RFP synthesis, leading to a substoichiometric RFP:GFP ratio. Failure to effectively respond to stalled ribosomes allows eventual read-through and a consequent rise in the RFP:GFP ratio that can be assessed by fluorescence-activated cell sorting (Fig. 5 B, schematic diagram; [Juszkiewicz and Hegde, 2017]). […] We also analyzed three of the cell populations treated with individual gRNAs as represented in Fig. 5 A that show varying effectiveness for USP9X depletion. […] We propose that USP9X inhibition may promote read-through by a combined effect on each of these RING E3 ligases linked to the ribosomal quality control pathway. […]

[26] = test system: ZNF598, MKRN1 and MKRN2; assay: Immunoblot of ZNF598 and Makorins in FT709-treated (KAAA)21 WT cells; format: cell-based; conditions: (KAAA)21 WT HEK293 cells, indicated concentrations for 48 h
Procedure: as §3

Sequence of USP11 (P51784 whole entry, species assumed): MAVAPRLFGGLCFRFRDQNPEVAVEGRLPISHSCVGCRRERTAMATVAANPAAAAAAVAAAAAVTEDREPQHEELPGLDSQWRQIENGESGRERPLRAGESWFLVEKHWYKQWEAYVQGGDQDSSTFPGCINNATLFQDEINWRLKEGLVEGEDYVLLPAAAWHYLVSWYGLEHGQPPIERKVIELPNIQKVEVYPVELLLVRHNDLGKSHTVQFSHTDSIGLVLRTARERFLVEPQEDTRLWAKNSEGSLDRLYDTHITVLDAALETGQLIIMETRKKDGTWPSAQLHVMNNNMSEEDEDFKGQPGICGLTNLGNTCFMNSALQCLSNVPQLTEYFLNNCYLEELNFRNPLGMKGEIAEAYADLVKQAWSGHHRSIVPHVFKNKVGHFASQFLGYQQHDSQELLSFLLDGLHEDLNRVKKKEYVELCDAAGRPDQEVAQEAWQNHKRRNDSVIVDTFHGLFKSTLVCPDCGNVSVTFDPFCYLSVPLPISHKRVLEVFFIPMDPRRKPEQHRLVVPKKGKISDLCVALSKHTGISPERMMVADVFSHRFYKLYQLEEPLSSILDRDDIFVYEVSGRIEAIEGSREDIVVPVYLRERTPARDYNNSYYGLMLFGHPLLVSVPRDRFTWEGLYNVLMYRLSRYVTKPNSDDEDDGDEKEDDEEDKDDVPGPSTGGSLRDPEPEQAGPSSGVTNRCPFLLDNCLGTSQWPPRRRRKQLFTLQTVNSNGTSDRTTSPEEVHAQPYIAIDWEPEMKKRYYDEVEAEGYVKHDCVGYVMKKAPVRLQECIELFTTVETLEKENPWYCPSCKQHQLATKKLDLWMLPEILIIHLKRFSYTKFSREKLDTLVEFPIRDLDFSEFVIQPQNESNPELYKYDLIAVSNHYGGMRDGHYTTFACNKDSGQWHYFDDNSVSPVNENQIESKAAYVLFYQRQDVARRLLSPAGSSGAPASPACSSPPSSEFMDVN
Sequence of USP7 (Q93009 whole entry, species assumed): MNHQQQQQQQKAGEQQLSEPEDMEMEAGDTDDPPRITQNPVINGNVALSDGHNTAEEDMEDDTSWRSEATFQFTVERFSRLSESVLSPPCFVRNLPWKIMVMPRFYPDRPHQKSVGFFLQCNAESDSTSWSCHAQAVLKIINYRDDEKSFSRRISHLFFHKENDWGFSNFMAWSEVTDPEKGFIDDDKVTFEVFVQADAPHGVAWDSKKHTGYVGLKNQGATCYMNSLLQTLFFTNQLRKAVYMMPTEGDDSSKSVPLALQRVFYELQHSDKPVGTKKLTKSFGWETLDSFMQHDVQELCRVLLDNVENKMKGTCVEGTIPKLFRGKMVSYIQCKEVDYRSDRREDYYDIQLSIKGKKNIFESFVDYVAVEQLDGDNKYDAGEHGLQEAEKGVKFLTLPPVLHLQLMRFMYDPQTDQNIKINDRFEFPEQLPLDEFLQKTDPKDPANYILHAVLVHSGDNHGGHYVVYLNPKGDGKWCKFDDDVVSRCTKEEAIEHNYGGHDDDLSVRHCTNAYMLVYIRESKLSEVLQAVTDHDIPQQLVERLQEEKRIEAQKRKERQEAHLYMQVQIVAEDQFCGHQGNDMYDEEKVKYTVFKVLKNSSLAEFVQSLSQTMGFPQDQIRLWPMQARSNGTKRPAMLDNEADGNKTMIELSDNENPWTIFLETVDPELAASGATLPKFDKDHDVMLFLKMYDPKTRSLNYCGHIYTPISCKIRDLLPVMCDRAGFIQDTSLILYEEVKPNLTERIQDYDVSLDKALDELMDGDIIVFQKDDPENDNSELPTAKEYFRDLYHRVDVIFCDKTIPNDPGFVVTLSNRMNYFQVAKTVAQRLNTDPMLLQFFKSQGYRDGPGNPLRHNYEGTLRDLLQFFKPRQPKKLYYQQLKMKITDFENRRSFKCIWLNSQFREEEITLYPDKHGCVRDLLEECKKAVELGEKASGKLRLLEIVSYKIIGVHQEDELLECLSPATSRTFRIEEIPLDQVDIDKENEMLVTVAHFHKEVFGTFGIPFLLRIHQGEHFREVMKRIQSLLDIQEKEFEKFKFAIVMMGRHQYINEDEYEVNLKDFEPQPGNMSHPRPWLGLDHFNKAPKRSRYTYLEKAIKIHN
Sequence of USP28 (Q96RU2 whole entry, species assumed): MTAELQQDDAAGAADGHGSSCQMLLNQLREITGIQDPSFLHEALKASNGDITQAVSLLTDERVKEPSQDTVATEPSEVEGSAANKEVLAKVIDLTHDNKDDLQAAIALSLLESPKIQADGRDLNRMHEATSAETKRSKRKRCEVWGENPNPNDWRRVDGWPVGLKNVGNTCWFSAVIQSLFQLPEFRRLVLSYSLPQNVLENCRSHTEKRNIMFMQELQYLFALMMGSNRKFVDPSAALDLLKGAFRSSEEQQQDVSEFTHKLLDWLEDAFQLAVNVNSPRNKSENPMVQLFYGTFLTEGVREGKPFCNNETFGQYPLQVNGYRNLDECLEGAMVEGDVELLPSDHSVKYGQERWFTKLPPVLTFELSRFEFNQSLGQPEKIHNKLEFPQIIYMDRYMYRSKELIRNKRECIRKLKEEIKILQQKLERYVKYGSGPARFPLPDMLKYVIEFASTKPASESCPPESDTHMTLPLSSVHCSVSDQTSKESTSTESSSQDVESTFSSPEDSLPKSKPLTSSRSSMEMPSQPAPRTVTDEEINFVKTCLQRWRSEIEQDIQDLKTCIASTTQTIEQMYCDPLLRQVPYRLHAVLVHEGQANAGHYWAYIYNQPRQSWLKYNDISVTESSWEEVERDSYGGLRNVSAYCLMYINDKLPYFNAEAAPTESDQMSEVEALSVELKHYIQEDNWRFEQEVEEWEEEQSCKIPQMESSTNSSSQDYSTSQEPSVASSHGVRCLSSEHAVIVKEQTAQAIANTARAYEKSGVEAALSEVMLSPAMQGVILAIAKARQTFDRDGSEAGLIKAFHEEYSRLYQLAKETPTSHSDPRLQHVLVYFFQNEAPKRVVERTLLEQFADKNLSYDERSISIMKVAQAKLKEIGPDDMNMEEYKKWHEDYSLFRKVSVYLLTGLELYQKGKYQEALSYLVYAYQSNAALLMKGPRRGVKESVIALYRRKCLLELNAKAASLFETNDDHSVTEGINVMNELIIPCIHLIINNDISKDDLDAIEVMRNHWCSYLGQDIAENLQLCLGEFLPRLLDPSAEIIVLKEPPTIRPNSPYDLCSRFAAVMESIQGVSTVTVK
Sequence of USP22 (Q9UPT9 whole entry, species assumed): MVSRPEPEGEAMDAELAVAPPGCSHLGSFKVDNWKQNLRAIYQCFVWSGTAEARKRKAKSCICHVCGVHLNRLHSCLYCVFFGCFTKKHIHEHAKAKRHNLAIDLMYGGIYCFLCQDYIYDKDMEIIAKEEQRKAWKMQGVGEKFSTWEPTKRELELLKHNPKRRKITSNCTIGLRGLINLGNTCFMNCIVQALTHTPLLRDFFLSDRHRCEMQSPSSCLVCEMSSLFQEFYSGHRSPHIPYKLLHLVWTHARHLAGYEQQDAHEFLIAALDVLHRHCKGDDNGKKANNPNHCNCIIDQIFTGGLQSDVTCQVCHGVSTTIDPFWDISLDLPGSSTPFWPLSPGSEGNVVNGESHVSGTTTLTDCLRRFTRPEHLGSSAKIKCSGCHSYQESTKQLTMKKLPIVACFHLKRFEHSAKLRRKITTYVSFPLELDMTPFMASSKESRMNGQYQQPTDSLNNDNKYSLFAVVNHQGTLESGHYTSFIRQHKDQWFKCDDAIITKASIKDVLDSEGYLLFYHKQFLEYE
Sequence of USP22 (Q14CW9 whole entry partner, species assumed): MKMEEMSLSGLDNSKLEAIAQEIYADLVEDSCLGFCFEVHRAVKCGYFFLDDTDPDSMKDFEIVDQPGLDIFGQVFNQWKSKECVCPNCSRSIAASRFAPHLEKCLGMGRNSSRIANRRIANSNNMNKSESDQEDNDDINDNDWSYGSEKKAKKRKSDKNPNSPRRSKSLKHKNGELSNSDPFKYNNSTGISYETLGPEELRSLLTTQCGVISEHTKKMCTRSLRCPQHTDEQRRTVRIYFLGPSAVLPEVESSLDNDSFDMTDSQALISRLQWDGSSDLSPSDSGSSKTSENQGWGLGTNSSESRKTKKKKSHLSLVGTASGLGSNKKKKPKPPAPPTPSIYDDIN
Sequence of USP22 (Q9NPA8 whole entry partner, species assumed): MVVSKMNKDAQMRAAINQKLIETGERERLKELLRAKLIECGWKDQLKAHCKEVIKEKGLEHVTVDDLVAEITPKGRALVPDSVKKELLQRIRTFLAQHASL
Sequence of USP18 (Q9UMW8 whole entry, species assumed): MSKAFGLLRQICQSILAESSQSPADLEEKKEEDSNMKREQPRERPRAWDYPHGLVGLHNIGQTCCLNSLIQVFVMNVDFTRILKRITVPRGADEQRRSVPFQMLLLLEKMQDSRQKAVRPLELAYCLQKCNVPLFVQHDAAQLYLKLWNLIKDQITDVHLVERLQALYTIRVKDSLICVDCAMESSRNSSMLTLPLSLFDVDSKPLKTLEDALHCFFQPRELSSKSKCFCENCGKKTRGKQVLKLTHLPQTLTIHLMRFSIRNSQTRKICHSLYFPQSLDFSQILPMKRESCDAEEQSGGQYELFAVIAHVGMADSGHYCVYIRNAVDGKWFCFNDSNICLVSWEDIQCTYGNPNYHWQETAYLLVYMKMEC

Cc1nc2c(C(O)C(=O)N3CC4=C(C3)CN(S(=O)(=O)c3cnc5c(c3)OCCO5)C4)cccc2o1 (centres unmarked) [FT709]
pIC50 [1]: < 4.57
pIC50 [2]: < 4.57
pIC50 [3]: < 4.48
pIC50 [4]: < 4.55
pIC50 [5]: < 4.59
pIC50 [6]: < 4.57
pIC50 [7]: < 4.57
pIC50 [8]: < 4.59
pIC50 [9]: < 4.48
pIC50 [10]: < 4.48
pIC50 [11]: < 4.48
pIC50 [12]: < 4.57
pIC50 [13]: < 4.48
pIC50 [14]: < 4.60
pIC50 [15]: < 4.57
pIC50 [16]: < 4.48
pIC50 [17]: < 4.57
pIC50 [18]: < 4.48
pIC50 [19]: < 4.57
pIC50 [20]: < 4.57
Protein abundance change in SILAC proteomic datasets [21]: de-enrichment of ZNF598 and MKRN2
FT709-dependent loss of ZNF598 versus MKRN2 [22]: loss of ZNF598 is minor compared with MKRN2
ZNF598 protein level [23]: reduction of ZNF598
pIC50 [24]: 6.88
polyA read-through (RFP:GFP ratio) [25]: recapitulate polyA read-through
ZNF598, MKRN1 and MKRN2 protein levels [26]: smaller reduction in ZNF598 levels but was again accompanied by parallel reductions in MKRN1 and 2
